Assay: Dissolution and solvate precipitation of pyripyropene derivative I in propylene carbonate (Alkylene carbonate A)
Type: physicochemical

## C[C@]1(COC(=O)C2CC2)[C@@H]2C[C@H](O)[C@@]3(C)Oc4cc(-c5cccnc5)oc(=O)c4[C@H](O)[C@@H]3[C@@]2(C)CC[C@@H]1OC(=O)C1CC1 [pyripyropene derivative I]
10 wt % and 20 wt % in propylene carbonate, after additional approximately 2 hours of agitation, precipitate crystalline by microscopy
  Appearance of solution on continued agitation: started to turn cloudy
10 wt % and 20 wt % solutions in Alkylene carbonate A (propylene carbonate), with agitation, both cases
  Time for complete dissolution: about 1 hour
